Measured values taken from publication PMC4891657, “Orexin 2 Receptor Antagonism is Sufficient to Promote NREM and REM Sleep from Mouse to Man” (Scientific Reports, 2016).
Substitutions are numbered along the chain they refer to.

Legend:
OX2R [1] = target: T1, OX2R (Macaca mulatta, UniProt F7CZM2); test: Radio-ligand displacement binding, CHO-K1 membranes, rhesus OX2R; parameters: species or system rhesus monkey; conditions: for fold OX2R selectivity (Ki): OX1R Ki / OX2R Ki; for Ki: read-out: OX2R affinity (Ki)
T1 sequence (F7CZM2 1-444): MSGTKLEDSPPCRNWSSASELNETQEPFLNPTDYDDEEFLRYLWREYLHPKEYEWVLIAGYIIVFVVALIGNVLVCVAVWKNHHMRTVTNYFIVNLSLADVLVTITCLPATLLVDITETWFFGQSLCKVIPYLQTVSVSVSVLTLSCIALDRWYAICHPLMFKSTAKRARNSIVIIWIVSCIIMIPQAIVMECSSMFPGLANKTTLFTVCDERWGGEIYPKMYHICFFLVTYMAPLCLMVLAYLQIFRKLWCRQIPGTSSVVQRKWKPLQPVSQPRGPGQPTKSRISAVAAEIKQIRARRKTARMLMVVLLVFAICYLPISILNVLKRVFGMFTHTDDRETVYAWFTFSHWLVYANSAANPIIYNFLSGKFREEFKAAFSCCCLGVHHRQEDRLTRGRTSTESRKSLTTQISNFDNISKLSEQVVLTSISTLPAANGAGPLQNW
Description: (§1) MK-1064 was evaluated for its ability to inhibit orexin-peptide-A-induced calcium mobilization in CHO cell lines separately expressing OX1R and OX2R from mice, rats, rabbits, dogs, rhesus monkeys and humans.
(§2) Binding and functional blockade of OX1R and OX2R with MK-1064 relative to other 2-SORAs and the DORA, MK-6096, were assessed using membranes from Chinese hamster ovary (CHO)-K1 cells (American Type Tissue Collection, Manassas, VA) transfected to express human, mouse, rat, rabbit, dog, or rhesus monkey OX1R or OX2R receptors, as described previously. The kinetics of binding to human OX2R was assessed by radioligand displacement on CHO-K1 cells expressing the receptor. […] The ON rate analysis was performed by presoaking GF/B filters in 0.3% polyethyleneimine (Sigma) using a Skatron 12-well cell harvester and cold buffer at the indicated time points after addition. For OFF rate determination, binding reactions were allowed to proceed to equilibrium and terminated with 1000x [Kd] of unlabeled antagonist and filtered as above at pre-determined time points. Ultima Gold^TM (PerkinElmer 6013327) scintillation cocktail was added to each filter disc and counted on a PerkinElmer TriCarb 2910 scintillation counter. Data were analyzed using GraphPad® Prism v 6.04 (San Diego, CA, USA). The KON rate was determined according to the equation, KON = (KOBS − KOFF)/[ligand].

OX2R [2] = target: T2, OX2R (Homo sapiens, UniProt O43614); test: Inhibition of orexin-peptide-A-induced calcium mobilization in CHO cells, human OX2R; assay type: cell-based; parameters: expressed in transfected cells; host or cells: CHO-K1; conditions: for fold OX2R selectivity (Kb): OX1R Kb / OX2R Kb
T2 sequence (O43614 1-444): T1 sequence (F7CZM2 1-444) with L113V, S195T, M196V, I286M, V308I, T334A, D337E
Description: as §1, §2

OX2R [3] = target: T2, OX2R; test: hOX2R binding kinetics (3H-labelled ligand, ON and OFF rate); parameters: expressed in transfected cells; host or cells: CHO-K1; conditions: for hOX2R binding kinetics KON: KON = (KOBS − KOFF)/[ligand]; for Kd / hOX2R binding kinetics KOFF / hOX2R binding kinetics T1/2OFF / hOX2R binding kinetics T1/2ON: room temperature, pH 7.4
Description: as §2

OX2R [4] = target: T3, OX2R (Canis lupus familiaris, UniProt Q9TUP7); test: Inhibition of orexin-peptide-A-induced calcium mobilization in CHO cells, dog OX2R; assay type: cell-based; conditions: for fold OX2R selectivity (Kb): OX1R Kb / OX2R Kb
T3 construct: expressed in transfected cells; host or cells: CHO-K1
T3 sequence (Q9TUP7 1-444): T1 sequence (F7CZM2 1-444) with S19P, I70V, L113V, S195T, F197L, V272A, P281Q, D337E, I417V
Description: as §1, §2

OX1R = target: T4, OX1R (Mus musculus, UniProt P58307); test: Radio-ligand displacement binding, CHO-K1 membranes, mouse OX1R; conditions: read-out: OX1R affinity (Ki)
T4 construct: expressed in transfected cells; host or cells: CHO-K1
T4 sequence (P58307 1-416): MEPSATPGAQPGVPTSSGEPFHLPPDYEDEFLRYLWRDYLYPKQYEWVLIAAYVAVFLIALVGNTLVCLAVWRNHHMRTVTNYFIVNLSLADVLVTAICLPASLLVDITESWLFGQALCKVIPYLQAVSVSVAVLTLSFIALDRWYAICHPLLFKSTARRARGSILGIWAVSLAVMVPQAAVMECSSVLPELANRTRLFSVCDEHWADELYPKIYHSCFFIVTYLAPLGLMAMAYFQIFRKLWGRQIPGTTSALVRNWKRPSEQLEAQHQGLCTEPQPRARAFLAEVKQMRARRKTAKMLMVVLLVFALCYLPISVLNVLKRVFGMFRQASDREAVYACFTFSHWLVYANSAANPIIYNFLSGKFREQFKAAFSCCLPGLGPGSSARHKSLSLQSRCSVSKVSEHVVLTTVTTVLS
Description: as §1, §2

Structure (SMILES): COc1ccc(CNC(=O)c2cc(-c3cncc(Cl)c3)cnc2-c2ccccn2)nc1OC [MK-1064, 5″-chloro-N-[(5,6-dimethoxypyridin-2-yl)methyl]-2,2′:5′, 3″-terpyridine-3′-carbo xamide]
- fold OX2R selectivity (Ki) (OX2R [1]): [1315] fold
- Ki (OX2R [1]): 0.62 nM
- Kb (OX2R [2]): 9 nM
- fold OX2R selectivity (Kb) (OX2R [2]): [208] fold
- hOX2R binding kinetics KON (OX2R [3]): 1.19e+07 min⁻¹
- Kd (OX2R [3]): 0.51 nM
- hOX2R binding kinetics KOFF (OX2R [3]): 0.00697 mol⁻¹ min⁻¹
- hOX2R binding kinetics T1/2OFF (OX2R [3]): 110 min
- hOX2R binding kinetics T1/2ON (OX2R [3]): 21.1 min
- Kb (OX2R [4]): 11 nM
- fold OX2R selectivity (Kb) (OX2R [4]): [337] fold
- Ki (OX1R): 1160 nM

Structure (SMILES): COc1ccc(CNC(=O)c2cc(-c3cncc(C)c3)ncc2-c2nccs2)nc1OC [MK-3697]
- Ki (OX2R [1]): 1.14 nM
- Kb (OX2R [2]): 14 nM
- Kd (OX2R [3]): 1.16 nM
- hOX2R binding kinetics T1/2OFF (OX2R [3]): 54.4 min
- hOX2R binding kinetics T1/2ON (OX2R [3]): 24.3 min
- Kb (OX2R [4]): 16 nM
- Ki (OX1R): 3950 nM

Structure (SMILES): Cc1ccc(-c2ncccn2)c(C(=O)N2C[C@H](COc3ccc(F)cn3)CC[C@H]2C)c1 [MK-6096]
- fold OX2R selectivity (Ki) (OX2R [1]): [28.4] fold
- Ki (OX2R [1]): 0.44 nM
- Kb (OX2R [2]): 11 nM
- fold OX2R selectivity (Kb) (OX2R [2]): [1.0] fold
- hOX2R binding kinetics KON (OX2R [3]): 9.19e+06 min⁻¹
- Kd (OX2R [3]): 0.34 nM
- hOX2R binding kinetics KOFF (OX2R [3]): 0.0188 mol⁻¹ min⁻¹
- hOX2R binding kinetics T1/2OFF (OX2R [3]): 118.3 min
- hOX2R binding kinetics T1/2ON (OX2R [3]): 62.9 min
- Kb (OX2R [4]): 10 nM
- fold OX2R selectivity (Kb) (OX2R [4]): [1.0] fold
- Ki (OX1R): 2.9 nM

Structure (SMILES): COc1ccc(CNC(=O)c2cc(-c3cc(Cl)cc(Cl)c3)cnc2-c2cccnc2)cc1OC [2-SORA-18]
- fold OX2R selectivity (Ki) (OX2R [1]): [1200] fold
- Ki (OX2R [1]): 0.11 nM
- Kb (OX2R [2]): 18 nM
- fold OX2R selectivity (Kb) (OX2R [2]): [9] fold
- Kb (OX2R [4]): 27 nM
- fold OX2R selectivity (Kb) (OX2R [4]): [3] fold
- Ki (OX1R): 98 nM

Structure (SMILES): COc1ccc(CNC(=O)c2cc(-c3cncc(C)c3)ncc2-c2ccccc2)nc1OC [2-SORA-7]
- fold OX2R selectivity (Ki) (OX2R [1]): [1994] fold
- Ki (OX2R [1]): 0.67 nM
- Kb (OX2R [2]): 12 nM
- fold OX2R selectivity (Kb) (OX2R [2]): [363] fold
- Kb (OX2R [4]): 13 nM
- fold OX2R selectivity (Kb) (OX2R [4]): [>769] fold
- Ki (OX1R): 1690 nM
